Source: US20070072938A1, “DRONABINOL TREATMENT OF DELAYED CHEMOTHERAPY-INDUCED NAUSEA AND VOMITING” (priority 2005, published 2007)
Marks after values point to notes of the source that are not given here.

Experiments:
[1] = system: patients receiving moderately to highly emetogenic chemotherapy; test: Randomized, double-blind, placebo-controlled study: antiemetic efficacy in delayed CINV (Days 2-5); format: in vivo, human
Experimental: (§1) A randomized, double-blind, placebo-controlled, parallel-group study evaluating the antiemetic efficacy and tolerability of oral dronabinol alone, dronabinol in combination with ondansetron, ondansetron alone, and placebo in patients receiving moderate to high emetogenic chemotherapy was conducted. All patients received dexamethasone 20 mg and ondansetron 16 mg intravenously prechemotherapy. […] On Day 2, placebo or fixed doses of 10 mg dronabinol, 16 mg ondansetron, or dronabinol plus ondansetron were administered. On Days 3-5, patients received placebo, flexible doses of 10-20 mg dronabinol, 8-16 mg ondansetron, or dronabinol plus ondansetron. Rescue antiemetics were permitted after using the maximum dose of medication. The primary efficacy variable was total response (“TR”) to study medication (TR=nausea intensity<5 mm on a 100-mm visual analog scale, no vomiting/retching, no rescue antiemetic). Secondary efficacy parameters included nausea status and intensity, as well as episodes of vomiting/retching. […] TR and presence/absence of nausea were evaluated using the Fisher's Exact Test. Tolerability was assessed by physical examination and adverse events.
All efficacy analyses were based on the ITT population.
This was a randomized, double-blind, placebo-controlled, parallel-group, 5-day study to evaluate the antiemetic efficacy and safety of oral dronabinol (sole under the trade name, Marinol®) alone, and in combination with ondansetron (sole under the trade name, Zofran®), versus ondansetron alone in patients receiving moderately to highly emetogenic chemotherapy. The investigator obtained written approval from the Institutional Review Board, and the study was conducted in accordance with the Declaration of Helsinki.
Patients who entered the study were to undergo cancer chemotherapy with moderately to highly emetogenic agents on Day 1 when they were randomized into 1 of 4 treatment groups: dronabinol alone (Group Dronabinol), ondansetron alone (Group Ondansetron), combination therapy with dronabinol and ondansetron (Group Dronabinol/Ondansetron), or placebo (Group Placebo). All patients received a standard prechemotherapy regimen of dexamethasone (20 mg) and ondansetron (16 mg). […] Placebo patients received matching placebo prechemotherapy and postchemotherapy on Day 1.
(§2) A kit of open-label antiemetics (metoclopramide 10 mg, prochlorperazine 5 mg, and prochlorperazine 25-mg suppository) was provided to the study participants for use on Days 1 through 8 as rescue medications to treat intolerable nausea and vomiting and/or retching after using the maximum dose of study medication at any dosing interval. Patients recorded the use of rescue medication and returned the unused portion of the kit.
Each morning, patients recorded the number of vomiting and/or retching episodes in the previous day. In addition, the patient recorded the daily presence or absence of nausea and its duration.
The primary efficacy measure was the incidence of total response to treatment following administration of moderately to highly emetogenic chemotherapeutic agents. Total response was defined as no vomiting and/or retching, intensity of nausea <5 mm on a 100-mm Visual Analog Scale (VAS scale 0-100 mm; 0 mm=no nausea; 100 mm=intractable nausea), and no use of rescue medication.
The secondary efficacy analysis included patients who took rescue medication. However, analyses were conducted only on data collected before the use of any rescue medication. The secondary efficacy assessments were complete response, presence or absence of nausea, episodes of vomiting and/or retching, duration of nausea and vomiting and/or retching, intensity of nausea measured by VAS, ECOG (wellness), and QoL. Complete response for vomiting/retching was defined as no vomiting/retching, intensity of nausea of ≦30 mm on the VAS, and no use of rescue therapy.

[2] = system: patients receiving moderately to highly emetogenic chemotherapy; test: Safety and tolerability: treatment-emergent adverse events (safety population); details: human, in vivo
Experimental: as §1
AEs and concomitant medications were also assessed.

[3] = system: patients receiving moderately to highly emetogenic chemotherapy; test: Other analyses: rescue antiemetic use and compliance with study medication; format: in vivo, human
Experimental: as §2
For the primary efficacy parameter, a logistic regression model was used for the primary analysis and a Cochran-Mantel-Haenszel (“CMH”) test stratified by pooled center was performed as a supportive analysis. Continuous secondary efficacy parameters were analyzed for all pairwise comparisons using a 2-way analysis of variance (“ANOVA”) with treatment and pooled center as fixed factors. For data that was not normally distributed, data were ranked, and an ANOVA was performed on the ranked scores. Categorical secondary efficacy parameters were analyzed for all pairwise comparisons using the CMH test stratified by pooled center. No adjustment for multiple comparisons was performed for the secondary efficacy parameters. No interactions were examined for the secondary efficacy parameters. Compliance with study medication was defined as taking all doses of supplied medication and was measured throughout the trial.

Structure (SMILES): Cc1nccn1CC1CCc2c(c3ccccc3n2C)C1=O (centres unmarked) [Ondansetron, ondansetron]
- Duration of nausea: 3-6 h ([1]; Day 2): 0 n (%)
- Duration of nausea: 6-8 h ([1]; Day 2): 0 n (%)
- Duration of nausea: 8-10 h ([1]; Day 2): 0 n (%)
- Duration of nausea: <3 h ([1]; Day 2): 4 (33) n (%)
- Duration of nausea: >10 h ([1]; Day 2): 1 (8) n (%)
- Duration of nausea: No nausea reported ([1]; Day 2): 7 (58) n (%)
- Observed Duration of Vomiting/Retching (mean ± SD) ([1]; Day 2): 2.00 ± 6.93 h
- Duration of nausea: 3-6 h ([1]; Day 3): 0 n (%)
- Duration of nausea: 6-8 h ([1]; Day 3): 1 (10) n (%)
- Duration of nausea: 8-10 h ([1]; Day 3): 0 n (%)
- Duration of nausea: <3 h ([1]; Day 3): 1 (10) n (%)
- Duration of nausea: >10 h ([1]; Day 3): 0 n (%)
- Duration of nausea: No nausea reported ([1]; Day 3): 8 (80) n (%)
- Observed Duration of Vomiting/Retching (mean ± SD) ([1]; Day 3): 0.06 ± 0.17 h
- Duration of nausea: 3-6 h ([1]; Day 4): 0 n (%)
- Duration of nausea: 6-8 h ([1]; Day 4): 0 n (%)
- Duration of nausea: 8-10 h ([1]; Day 4): 0 n (%)
- Duration of nausea: <3 h ([1]; Day 4): 1 (13) n (%)
- Duration of nausea: >10 h ([1]; Day 4): 0 n (%)
- Duration of nausea: No nausea reported ([1]; Day 4): 7 (88) n (%)
- Observed Duration of Vomiting/Retching (mean ± SD) ([1]; Day 4): 0.00 ± 0.00 h
- Duration of nausea: 3-6 h ([1]; Day 5): 1 (14) n (%)
- Duration of nausea: 6-8 h ([1]; Day 5): 0 n (%)
- Duration of nausea: 8-10 h ([1]; Day 5): 0 n (%)
- Duration of nausea: <3 h ([1]; Day 5): 0 n (%)
- Duration of nausea: >10 h ([1]; Day 5): 0 n (%)
- Duration of nausea: No nausea reported ([1]; Day 5): 6 (86) n (%)
- Observed Duration of Vomiting/Retching (mean ± SD) ([1]; Day 5): 0.02 ± 0.06 h
- Absence of nausea ([1]; Days 2-5): 64^† %
- Absence of nausea (frequency/n) ([1]; Days 2-5): (9/14)
- Mean vomiting/retching ([1]; Days 2-5): 1.3 episodes/day
- Total response (frequency/n) ([1]; Days 2-5): (7/12)
- Mean nausea intensity ([1]; Days 2-5, 100-mm VAS): 24.0^† mm
- Absence of nausea ([1]; Days 2-5, listed as ondansetron): 64%
- Total response ([1]; Days 2-5 LOCF end point, TR = nausea <5 mm VAS, no vomiting/retching, no rescue): 58%
- Complete Response: No ([1]; LOCF End Point (Days 2-5)): 5 (42) n (%)
- Complete Response: Yes ([1]; LOCF End Point (Days 2-5)): 7 (58)* n (%)
- Adverse event: Asthenia [2]: 1 (6) n (%)
- Adverse event: Chest pain [2]: 2 (13) n (%)
- Adverse event: Constipation [2]: 2 (13) n (%)
- Adverse event: Diarrhea [2]: 1 (6) n (%)
- Adverse event: Dizziness [2]: 1 (6) n (%)
- Adverse event: Fatigue [2]: 1 (6) n (%)
- Adverse event: Headache [2]: 3 (19) n (%)
- Adverse event: Hyperglycemia [2]: 2 (13) n (%)
- Adverse event: Insomnia [2]: 2 (13) n (%)
- Patients who permanently discontinued study medication because of a TEAE [2]: 2 (13) n (%)
- Patients with at least 1 SAE [2]: 1 (6) n (%)
- Patients with at least 1 TEAE [2]: 14 (88) n (%)
- Patients with at least 1 TEAE leading to dose reduction [2]: 0 n (%)
- Patients with at least 1 severe TEAE [2]: 1 (6) n (%)
- patients who required rescue medicine ([3]; Day 5): 25%
- Rescue antiemetics used (patients) ([3]; whole study): 31%
